Laboratory results: the NIST ThermoML archive (doi:10.1016/j.jct.2014.06.004)

Columns and labels:
[1] = xn = mol fraction of the nth substance listed; conditions: 100 kPa, Liquid; for speed of sound: Frequency=3 MHz, Sing-around technique in a fixed-path interferometer; for mass density: Vibrating tube method
[2] = refractive index (Na D-line) (dimensionless); xn = mol fraction of the nth substance listed; conditions: 100 kPa, Liquid, Standard Abbe refractometry

CCCCCCC(=O)O [heptanoic acid] + CCCC(=O)O
Conditions | mass density, [1] [kg/m3] | refractive index, [2] | speed of sound, [1] [m/s]
293.15 K, x1 = 0.0559 | 954.2 | 1.4005 | 1203
293.15 K, x1 = 0.1059 | 951.3 | 1.4024 | 1209
293.15 K, x1 = 0.2061 | 945.8 | 1.4054 | 1222
293.15 K, x1 = 0.3087 | 940.8 | 1.4084 | 1233
293.15 K, x1 = 0.4037 | 936.7 | 1.4109 | 1244
293.15 K, x1 = 0.5037 | 932.7 | 1.4134 | 1254
293.15 K, x1 = 0.6006 | 929.2 | 1.4157 | 1263
293.15 K, x1 = 0.7049 | 925.8 | 1.4179 | 1272
293.15 K, x1 = 0.805 | 922.8 | 1.4199 | 1280
293.15 K, x1 = 0.9052 | 920.1 | 1.4217 | 1289
293.15 K, x1 = 0.9575 | 918.7 | 1.4226 | 1292
293.15 K, x1 = 1 | 917.7 | 1.4234 | 1295
298.15 K, x1 = 0.0559 | 949.3 | 1.3984 | 1185
298.15 K, x1 = 0.1059 | 946.4 | 1.4001 | 1191
298.15 K, x1 = 0.2061 | 941 | 1.4033 | 1203
298.15 K, x1 = 0.3087 | 936.2 | 1.4063 | 1215
298.15 K, x1 = 0.4037 | 932.1 | 1.4089 | 1225
298.15 K, x1 = 0.5037 | 928.2 | 1.4114 | 1236
298.15 K, x1 = 0.6006 | 924.8 | 1.4136 | 1245
298.15 K, x1 = 0.7049 | 921.5 | 1.4159 | 1254
298.15 K, x1 = 0.805 | 918.5 | 1.4179 | 1263
298.15 K, x1 = 0.9052 | 915.9 | 1.4197 | 1271
298.15 K, x1 = 0.9575 | 914.5 | 1.4207 | 1275
298.15 K, x1 = 1 | 913.5 | 1.4214 | 1278
303.15 K, x1 = 0.0559 | 944.4 | 1.3963 | 1166
303.15 K, x1 = 0.1059 | 941.6 | 1.398 | 1172
303.15 K, x1 = 0.2061 | 936.3 | 1.4012 | 1185
303.15 K, x1 = 0.3087 | 931.5 | 1.4042 | 1197
303.15 K, x1 = 0.4037 | 927.6 | 1.4068 | 1207
303.15 K, x1 = 0.5037 | 923.8 | 1.4093 | 1217
303.15 K, x1 = 0.6006 | 920.4 | 1.4116 | 1227
303.15 K, x1 = 0.7049 | 917.1 | 1.4138 | 1236
303.15 K, x1 = 0.805 | 914.2 | 1.4158 | 1245
303.15 K, x1 = 0.9052 | 911.6 | 1.4177 | 1253
303.15 K, x1 = 0.9575 | 910.3 | 1.4186 | 1257
303.15 K, x1 = 1 | 909.3 | 1.4194 | 1260
308.15 K, x1 = 0.0559 | 939.5 | 1.3942 | 1147
308.15 K, x1 = 0.1059 | 936.7 | 1.3958 | 1154
308.15 K, x1 = 0.2061 | 931.5 | 1.3991 | 1167
308.15 K, x1 = 0.3087 | 926.9 | 1.4021 | 1179
308.15 K, x1 = 0.4037 | 923 | 1.4047 | 1189
308.15 K, x1 = 0.5037 | 919.3 | 1.4072 | 1199
308.15 K, x1 = 0.6006 | 916 | 1.4095 | 1209
308.15 K, x1 = 0.7049 | 912.8 | 1.4117 | 1218
308.15 K, x1 = 0.805 | 910 | 1.4138 | 1227
308.15 K, x1 = 0.9052 | 907.4 | 1.4157 | 1235
308.15 K, x1 = 0.9575 | 906.1 | 1.4166 | 1239
308.15 K, x1 = 1 | 905.1 | 1.4173 | 1242
313.15 K, x1 = 0.0559 | 934.6 | 1.392 | 1129
313.15 K, x1 = 0.1059 | 931.9 | 1.3937 | 1136
313.15 K, x1 = 0.2061 | 926.8 | 1.397 | 1148
313.15 K, x1 = 0.3087 | 922.3 | 1.4 | 1161
313.15 K, x1 = 0.4037 | 918.5 | 1.4026 | 1171
313.15 K, x1 = 0.5037 | 914.8 | 1.4051 | 1182
313.15 K, x1 = 0.6006 | 911.6 | 1.4074 | 1191
313.15 K, x1 = 0.7049 | 908.4 | 1.4097 | 1201
313.15 K, x1 = 0.805 | 905.7 | 1.4117 | 1209
313.15 K, x1 = 0.9052 | 903.1 | 1.4136 | 1218
313.15 K, x1 = 0.9575 | 901.9 | 1.4146 | 1222
313.15 K, x1 = 1 | 900.9 | 1.4153 | 1225
